According to ChEMBL document CHEMBL1201862, “PubChem BioAssay data set” (2004):
Activity calls are given as the source filed them.

Assays:
[1] = biological target: T1, Aminopeptidase N (Plasmodium falciparum FcB1/Columbia, UniProt O96935); experiment: P. falciparum M1AAP inhibitors, biochemical, fluorogenic H-Leu-NHMec substrate, 1536-well (AID 1445); parameters: species or system Plasmodium falciparum 3D7, 3D7
T1 sequence (O96935 whole entry): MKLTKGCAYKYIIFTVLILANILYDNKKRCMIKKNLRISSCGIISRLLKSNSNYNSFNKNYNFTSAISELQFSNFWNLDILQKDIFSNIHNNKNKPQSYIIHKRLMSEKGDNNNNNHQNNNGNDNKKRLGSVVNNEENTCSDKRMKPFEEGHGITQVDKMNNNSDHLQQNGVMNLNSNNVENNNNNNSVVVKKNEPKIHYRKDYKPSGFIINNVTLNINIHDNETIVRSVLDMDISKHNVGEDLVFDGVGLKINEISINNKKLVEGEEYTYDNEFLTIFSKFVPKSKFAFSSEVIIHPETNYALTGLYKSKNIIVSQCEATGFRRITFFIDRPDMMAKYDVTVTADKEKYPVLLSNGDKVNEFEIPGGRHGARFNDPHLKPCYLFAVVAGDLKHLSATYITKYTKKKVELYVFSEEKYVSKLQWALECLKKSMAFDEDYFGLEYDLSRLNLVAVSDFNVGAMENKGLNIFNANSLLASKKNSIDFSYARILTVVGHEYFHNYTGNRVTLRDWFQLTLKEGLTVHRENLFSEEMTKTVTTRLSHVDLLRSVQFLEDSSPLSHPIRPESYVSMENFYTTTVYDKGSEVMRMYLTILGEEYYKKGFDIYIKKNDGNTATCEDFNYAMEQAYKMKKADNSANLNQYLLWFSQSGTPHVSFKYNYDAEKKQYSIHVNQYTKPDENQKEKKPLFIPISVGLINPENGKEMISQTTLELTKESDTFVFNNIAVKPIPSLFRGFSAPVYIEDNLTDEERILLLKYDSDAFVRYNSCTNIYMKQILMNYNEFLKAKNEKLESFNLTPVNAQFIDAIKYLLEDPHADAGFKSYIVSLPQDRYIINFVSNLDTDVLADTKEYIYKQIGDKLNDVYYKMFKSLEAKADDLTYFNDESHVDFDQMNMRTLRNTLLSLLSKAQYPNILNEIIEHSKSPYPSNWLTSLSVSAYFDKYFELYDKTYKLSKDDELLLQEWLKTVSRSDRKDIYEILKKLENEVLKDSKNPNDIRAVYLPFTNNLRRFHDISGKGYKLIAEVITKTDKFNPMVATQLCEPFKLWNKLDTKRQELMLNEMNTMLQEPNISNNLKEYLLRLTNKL

[2] = biological target: T2, Voltage-gated inwardly rectifying potassium channel KCNH2 (Homo sapiens, UniProt Q12809); experiment: concentration dependence of hERG rescue from dofetilide, dose response, manual patch clamp, HEK293 cells (AID 2638); format: ADME
[3] = biological target: T2, Voltage-gated inwardly rectifying potassium channel KCNH2; experiment: hERG protection from proarrhythmic block, potency, dose response, cell-based, thallium flux (AID 2121); format: ADME
[4] = cytotoxicity toward NIH3T3 fibroblasts, dose response, counter-screen, cell-based, ATP luminescence, mouse fibroblasts (AID 2010); format: functional;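 further: cells exposed to compound for about 90 hours before reading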
[5] = Luminescent dose response cell-based high throughput screening assay for inhibitors of the Janus kinase 2 mutant JAK2V617F. [Related pubchem assays: 1446 (Primary screen.), 1521 (Confirmation assay.), 1486 (Counter screen.)]; format: functional
[6] = inhibitors of intracellular T. cruzi replication, confirmation, NIH3T3 host cells, beta-gal luminescence (AID 2044); format: functional, cell-based;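 further: intracellular parasites grown in NIH/3T3 mouse fibroblasts as host cells; luminescent beta-galactosidase reporter signal from transgenic T. cruzi replicating inside host cells; inhibitors lower the luminescence signal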
[7] = test system: CHO; experiment: cytotoxicity in TLR9-MyD88 CHO cells, dose response, cytotoxicity control for TLR9-MyD88 binding inhibitor project, cell-based, luminescence (AID 588339); format: functional, hamster; settings: Cricetulus griseus;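 further: CHO cells stably coexpressing TLR9 and MyD88 fusions from primary screen; compound exposure lasted 48 hours before viability readout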
[8] = MC4R antagonists, dose response, counter-screen for LGR2 antagonist project, cell-based, plate reader, cherry pick (AID 743444); format: functional;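 further: transfected HEK 293 cells stimulated with alpha-MSH peptide; potency of inhibitors of the alpha-MSH evoked signal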
[9] = C. albicans growth with fluconazole, confirmation, fluorescence, retest (AID 2467); format: functional, cell-based
[10] = LGR2 antagonists, dose response, cell-based, HEK293, CRE-luciferase reporter, cherry pick, set 2 (AID 743343); format: functional;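 further: transfected cells were stimulated with diluted bursicon conditioned medium after compound addition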
[11] = biological target: Beta Lactamase (Pseudomonas aeruginosa, UniProt Q932Y6); experiment: beta-lactamase reporter inhibitor potency, dose response, artefact control for TLR9-MyD88 binding inhibitor project, BLA reporter cells, FRET fluorescence (AID 588341); format: cell-based;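 further: cell based assay in CHO-K1 cells stably expressing beta-lactamase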
[12] = biological target: Bifunctional protein GlmU (Mycobacterium tuberculosis, UniProt P9WMN3); experiment: Inhibitors of Mycobacterial Glucosamine-1-phosphate acetyl transferase (GlmU). Secondary screen.; parameters: species or system Mycobacterium tuberculosis H37Rv
[13] = biological target: G-protein coupled receptor 55 (Homo sapiens, UniProt Q9Y2T6); experiment: GPR55 antagonists blocking LPI-driven arrestin recruitment, primary screen, imaging, U2OS, beta-arrestin-GFP, LPI agonist (AID 2013); format: functional;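 further: antagonist potency measured as reduced agonist-driven arrestin aggregation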
[14] = HepG2 cell cytotoxicity, dose response, cytotoxicity control, plate reader, cherry-pick, antagonist series (AID 743416); format: functional, cell-based
[15] = NIH-3T3 fibroblast cytotoxicity, dose response, cytotoxicity control, cell-based, fluorescence, Alamar Blue, secondary assay (AID 2327); format: functional;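 further: NIH-3T3 mouse fibroblasts cultured with fluconazole at 8 µg/mL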
[16] = A549 cell cytotoxicity, dose response, cytotoxicity control, plate reader, cherry-pick, antagonist series (AID 743412); format: functional, cell-based
[17] = Shn3 3'UTR reporter inhibitors, dose response, cell-based, Clone20 osteoblasts, firefly luciferase, cherry-picked (AID 624132); format: functional;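 further: firefly luciferase luminescence from reporter carrying the Shn3 3'UTR in osteoblasts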
[18] = biological target: T3, Protein RecA (Mycobacterium tuberculosis, UniProt P9WHJ3); experiment: Fluorescence Cell-Free Homogeneous Dose Retest to Identify Inhibitors of RecA-Intein Splicing Activity. [Related pubchem assays (depositor defined):AID2097, AID2223, AID489010, AID492950]; format: functional
T3 sequence (P9WHJ3 whole entry): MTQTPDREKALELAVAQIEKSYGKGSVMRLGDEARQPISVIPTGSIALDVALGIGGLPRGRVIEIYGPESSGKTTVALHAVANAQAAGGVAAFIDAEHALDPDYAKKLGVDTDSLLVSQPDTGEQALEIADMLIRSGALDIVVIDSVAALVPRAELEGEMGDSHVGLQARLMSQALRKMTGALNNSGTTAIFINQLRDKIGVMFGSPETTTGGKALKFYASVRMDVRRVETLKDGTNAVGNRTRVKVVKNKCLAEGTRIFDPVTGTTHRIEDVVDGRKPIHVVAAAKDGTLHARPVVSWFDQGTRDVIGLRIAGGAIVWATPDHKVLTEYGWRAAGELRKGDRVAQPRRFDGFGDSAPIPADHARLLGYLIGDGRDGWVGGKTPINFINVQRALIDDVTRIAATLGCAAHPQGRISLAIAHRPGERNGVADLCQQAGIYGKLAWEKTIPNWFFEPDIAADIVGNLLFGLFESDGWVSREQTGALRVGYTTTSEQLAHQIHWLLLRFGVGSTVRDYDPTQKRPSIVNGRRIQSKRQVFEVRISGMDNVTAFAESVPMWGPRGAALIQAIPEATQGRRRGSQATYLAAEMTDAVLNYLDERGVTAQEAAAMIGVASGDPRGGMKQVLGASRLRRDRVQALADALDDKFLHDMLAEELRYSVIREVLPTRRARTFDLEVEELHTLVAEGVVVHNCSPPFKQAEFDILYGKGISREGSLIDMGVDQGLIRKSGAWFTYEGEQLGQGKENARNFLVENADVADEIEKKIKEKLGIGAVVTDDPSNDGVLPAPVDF

[19] = HEK293 cell cytotoxicity, dose response, cytotoxicity control, plate reader, cherry-picked samples (AID 743446); format: functional, cell-based
[20] = biological target: T4, Replicative DNA helicase DnaB (Mycobacterium tuberculosis, UniProt P9WMR3); experiment: DnaB intein splicing inhibitors, dose response, biochemical, cell-free fluorescence (AID 449749); format: functional
T4 sequence (P9WMR3 whole entry): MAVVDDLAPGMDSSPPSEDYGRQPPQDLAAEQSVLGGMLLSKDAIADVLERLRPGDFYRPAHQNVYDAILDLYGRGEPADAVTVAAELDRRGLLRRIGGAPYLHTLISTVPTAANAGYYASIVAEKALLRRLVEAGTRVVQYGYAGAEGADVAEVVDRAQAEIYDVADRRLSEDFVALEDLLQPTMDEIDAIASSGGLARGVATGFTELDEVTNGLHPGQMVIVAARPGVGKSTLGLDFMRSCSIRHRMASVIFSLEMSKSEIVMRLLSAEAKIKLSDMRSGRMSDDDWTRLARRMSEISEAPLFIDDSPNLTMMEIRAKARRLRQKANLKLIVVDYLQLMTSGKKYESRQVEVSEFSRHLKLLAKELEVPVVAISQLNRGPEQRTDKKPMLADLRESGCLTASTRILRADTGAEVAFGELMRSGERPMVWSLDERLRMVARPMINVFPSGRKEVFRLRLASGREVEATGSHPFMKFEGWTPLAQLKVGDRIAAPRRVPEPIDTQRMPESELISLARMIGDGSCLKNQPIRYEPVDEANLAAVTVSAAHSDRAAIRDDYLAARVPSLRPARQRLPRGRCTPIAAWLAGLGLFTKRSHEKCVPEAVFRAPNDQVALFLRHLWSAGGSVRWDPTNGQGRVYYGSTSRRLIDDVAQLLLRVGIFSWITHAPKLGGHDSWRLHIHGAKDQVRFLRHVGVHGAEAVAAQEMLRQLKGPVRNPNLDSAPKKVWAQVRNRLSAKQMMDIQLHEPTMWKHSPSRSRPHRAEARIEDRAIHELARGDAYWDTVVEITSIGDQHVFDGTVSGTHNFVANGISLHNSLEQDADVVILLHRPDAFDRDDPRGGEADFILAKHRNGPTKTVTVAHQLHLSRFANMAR

[21] = control 3'UTR Renilla luciferase suppression, dose response, counter-screen for Shn3 inhibitor project, cell-based, Clone20-Shn3RL, cherry-picked (AID 624133); format: functional

T2 sequence (Q12809 whole entry): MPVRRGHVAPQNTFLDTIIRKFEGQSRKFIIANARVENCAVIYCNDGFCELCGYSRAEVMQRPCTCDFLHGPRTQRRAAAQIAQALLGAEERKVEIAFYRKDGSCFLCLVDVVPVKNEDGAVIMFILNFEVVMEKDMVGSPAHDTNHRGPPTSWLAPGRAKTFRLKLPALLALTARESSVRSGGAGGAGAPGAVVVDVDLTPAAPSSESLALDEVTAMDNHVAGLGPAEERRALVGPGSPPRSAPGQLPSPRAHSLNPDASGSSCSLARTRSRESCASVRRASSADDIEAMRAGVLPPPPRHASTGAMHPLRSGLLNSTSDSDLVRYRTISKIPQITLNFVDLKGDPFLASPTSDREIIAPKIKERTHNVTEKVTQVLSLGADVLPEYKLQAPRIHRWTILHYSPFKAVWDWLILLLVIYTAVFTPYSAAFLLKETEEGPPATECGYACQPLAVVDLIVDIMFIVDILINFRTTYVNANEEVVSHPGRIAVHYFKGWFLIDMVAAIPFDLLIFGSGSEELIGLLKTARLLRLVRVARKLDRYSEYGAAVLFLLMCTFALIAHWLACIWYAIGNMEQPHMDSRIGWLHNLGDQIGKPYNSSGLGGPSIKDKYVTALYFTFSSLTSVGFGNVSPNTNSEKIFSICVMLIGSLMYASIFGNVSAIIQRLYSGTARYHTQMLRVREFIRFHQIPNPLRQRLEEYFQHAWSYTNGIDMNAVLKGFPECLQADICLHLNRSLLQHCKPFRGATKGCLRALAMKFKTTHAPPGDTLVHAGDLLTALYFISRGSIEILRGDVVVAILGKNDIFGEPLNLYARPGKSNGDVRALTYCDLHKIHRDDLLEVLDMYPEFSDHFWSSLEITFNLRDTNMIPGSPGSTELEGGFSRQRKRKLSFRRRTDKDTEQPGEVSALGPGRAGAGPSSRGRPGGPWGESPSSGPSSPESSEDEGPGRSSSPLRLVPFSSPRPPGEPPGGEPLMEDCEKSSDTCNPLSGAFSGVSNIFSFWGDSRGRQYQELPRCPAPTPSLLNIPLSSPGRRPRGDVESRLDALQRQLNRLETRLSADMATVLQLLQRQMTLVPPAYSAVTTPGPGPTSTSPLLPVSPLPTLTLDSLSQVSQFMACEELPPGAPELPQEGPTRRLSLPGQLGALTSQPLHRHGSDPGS
Chain of G-protein coupled receptor 55 (Q9Y2T6 whole entry): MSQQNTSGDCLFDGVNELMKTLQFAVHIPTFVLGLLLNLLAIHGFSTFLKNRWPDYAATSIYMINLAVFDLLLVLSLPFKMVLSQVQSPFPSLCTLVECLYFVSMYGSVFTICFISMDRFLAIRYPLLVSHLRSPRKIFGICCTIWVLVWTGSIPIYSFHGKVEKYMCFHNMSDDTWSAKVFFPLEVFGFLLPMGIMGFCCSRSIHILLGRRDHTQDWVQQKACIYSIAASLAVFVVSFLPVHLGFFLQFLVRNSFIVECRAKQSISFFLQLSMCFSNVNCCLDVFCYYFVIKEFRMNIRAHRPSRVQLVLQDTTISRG
Chain of Beta Lactamase (Q932Y6 whole entry): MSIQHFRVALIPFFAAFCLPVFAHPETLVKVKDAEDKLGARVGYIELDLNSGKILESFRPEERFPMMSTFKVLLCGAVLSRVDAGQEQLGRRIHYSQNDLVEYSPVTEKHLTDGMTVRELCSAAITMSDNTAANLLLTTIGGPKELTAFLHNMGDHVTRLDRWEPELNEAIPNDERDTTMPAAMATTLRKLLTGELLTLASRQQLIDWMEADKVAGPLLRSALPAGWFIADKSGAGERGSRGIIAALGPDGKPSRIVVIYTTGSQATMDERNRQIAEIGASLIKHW
Chain of Bifunctional protein GlmU (P9WMN3 whole entry): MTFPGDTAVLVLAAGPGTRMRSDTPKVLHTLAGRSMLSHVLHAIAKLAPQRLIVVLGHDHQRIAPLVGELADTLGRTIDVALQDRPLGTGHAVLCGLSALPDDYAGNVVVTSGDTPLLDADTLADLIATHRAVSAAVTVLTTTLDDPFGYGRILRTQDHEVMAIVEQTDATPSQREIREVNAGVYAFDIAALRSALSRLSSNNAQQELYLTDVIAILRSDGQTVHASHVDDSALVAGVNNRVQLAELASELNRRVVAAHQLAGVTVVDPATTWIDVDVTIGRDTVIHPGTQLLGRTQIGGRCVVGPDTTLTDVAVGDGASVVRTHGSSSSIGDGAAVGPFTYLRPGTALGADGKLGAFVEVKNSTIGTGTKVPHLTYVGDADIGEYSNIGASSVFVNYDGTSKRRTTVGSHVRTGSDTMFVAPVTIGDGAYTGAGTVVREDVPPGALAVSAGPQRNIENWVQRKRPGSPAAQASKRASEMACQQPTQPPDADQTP

CCC1CCCCN1C(=S)NC(=O)c1cccs1 (stereo unspecified)
IC50 [1]: 30 µM (active)
EC50 [2]: 5.2 µM (active)
EC50 [3]: 290 nM (active)

CNC(=O)c1nnsc1[S+]([O-])c1ccc(Cl)cc1 (stereo unspecified)
EC50 [4]: 1.9 µM (active)
IC50 [5]: 707 nM (active)
EC50 [6]: 977 nM (active)
IC50 [7]: 2.23 µM (active)
AC50 [8]: 2.49 µM (active)
EC50 [9]: 2.07 µM (active)
AC50 [10]: 2.58 µM (active)
IC50 [11]: 19.6 µM (inactive)
IC50 [12]: 108 µM (active)
IC50 [13]: 2.73 µM (active)
AC50 [14]: 9.72 µM (active)
EC50 [15]: 5.05 µM (inconclusive)
AC50 [16]: 11.5 µM (active)
AC50 [17]: 2.02 µM (active)
EC50 [18]: 21 µM (active)
AC50 [19]: 12 µM (active)
AC50 [20]: 41.2 µM (active)
AC50 [21]: 6.49 µM (active)
